Results: patent US12162893B2 (Erasca, Inc., priority 2020, dated 2024)

Target: T1, mutant G12C K-RAS (Homo sapiens, UniProt P01116, G12C)
T1 construct: made in house; host or cells: E. coli BL21
Test: covalent adduct formation (CAF) with mutant G12C K-RAS
Type: binding
Settings: Table 6; 10 μM, 1 h
Experimental: Embodiments disclosed herein are further illustrated by the following examples in Tables 1-4 and the Examples hereinbelow. The Tables indicate the compound number, structure, the observed mass spectral molecular weight peak, and covalent adduct formation (CAF) with a mutant G12C K-RAS after 60 minutes at a concentration of 10 micromolar.

Row | Structure (SMILES) | % CAF @ 10 μM,1 h
1 | C=CC(=O)N1C[C@H](C)N(c2nc(=O)n3c4c(c(-c5c(O)cccc5F)c(Cl)cc24)OC[C@H]3CN(C)CC(F)(F)F)C[C@H]1C (atropisomer, axis not shown) [Example 242, (3R,10S)-7-((2S,5R)-4-acryloyl-2,5-dimethylpiperazin-1-yl)-9-chloro-10-(2-fluoro-6-hydroxyphenyl)-3-((methyl(2,2,2-trifluoroethyl)amino)methyl)-2H-[1,4]oxazino[2,3,4-ij]quinazolin-5(3H)-one] | 63.1%
2 | C=CC(=O)N1C[C@H](C)N(c2nc(=O)n3c4c(c(-c5c(O)cccc5F)c(Cl)cc24)OC[C@@H]3Cn2cccn2)C[C@H]1C (atropisomer, axis not shown) [Example 243, (3S,10S)-3-((1H-pyrazol-1-yl)methyl)-7-((2S,5R)-4-acryloyl-2,5-dimethylpiperazin-1-yl)-9-chloro-10-(2-fluoro-6-hydroxyphenyl)-2H-[1,4]oxazino[2,3,4-ij]quinazolin-5(3H)-one] | 80.6%
3 | C=CC(=O)N1C[C@H](C)N(c2nc(=O)n3c4c(c(-c5c(O)cccc5F)c(Cl)cc24)OC[C@@H]3Cn2cccn2)C[C@H]1C (atropisomer, axis not shown) [Example 244, (3S,10R)-3-((1H-pyrazol-1-yl)methyl)-7-((2S,5R)-4-acryloyl-2,5-dimethylpiperazin-1-yl)-9-chloro-10-(2-fluoro-6-hydroxyphenyl)-2H-[1,4]oxazino[2,3,4-ij]quinazolin-5(3H)-one] | 4.4%
4 | C=CC(=O)N1C[C@H](C)N(c2nc(=O)n3c4c(c(-c5c(O)cccc5F)c(Cl)cc24)OC[C@@H]3Cn2ccnc2)C[C@H]1C (atropisomer, axis not shown) [Example 248, (3S)-3-((1H-imidazol-1-yl)methyl)-7-((2S,5R)-4-acryloyl-2,5-dimethylpiperazin-1-yl)-9-chloro-10-(2-fluoro-6-hydroxyphenyl)-2H-[1,4]oxazino[2,3,4-ij]quinazolin-5(3H)-one] | 2.3%
5 | C=CC(=O)N1C[C@H](C)N(c2nc(=O)n3c4c(c(-c5c(O)cccc5F)c(Cl)cc24)OC[C@@H]3CCCN2CCOCC2)C[C@H]1C (atropisomer, axis not shown) [Example 265, (3S,10S)-7-((2S,5R)-4-acryloyl-2,5-dimethylpiperazin-1-yl)-9-chloro-10-(2-fluoro-6-hydroxyphenyl)-3-(3-morpholinopropyl)-2,3-dihydro-5H-[1,4]oxazino[2,3,4-ij]quinazolin-5-one] | 97.5%

Next, values leading:

Row | % CAF @ 10 μM,1 h | Structure (SMILES)
6 | 0% | C=CC(=O)N1C[C@H](C)N(c2nc(=O)n3c4c(c(-c5c(O)cccc5F)c(Cl)cc24)OC[C@H]3Cn2cccn2)C[C@H]1C (atropisomer, axis not shown) [Example 245, (3R,10R)-3-((1H-pyrazol-1-yl)methyl)-7-((2S,5R)-4-acryloyl-2,5-dimethylpiperazin-1-yl)-9-chloro-10-(2-fluoro-6-hydroxyphenyl)-2H-[1,4]oxazino[2,3,4-ij]quinazolin-5(3H)-one]
7 | 97.4% | C=CC(=O)N1C[C@H](C)N(c2nc(=O)n3c4c(c(-c5c(O)cccc5F)c(Cl)cc24)OC[C@H]3Cn2cccn2)C[C@H]1C (atropisomer, axis not shown) [Example 246, (3R,10S)-3-((1H-pyrazol-1-yl)methyl)-7-((2S,5R)-4-acryloyl-2,5-dimethylpiperazin-1-yl)-9-chloro-10-(2-fluoro-6-hydroxyphenyl)-2H-[1,4]oxazino[2,3,4-ij]quinazolin-5(3H)-one]
8 | 95% | C=CC(=O)N1C[C@H](C)N(c2nc(=O)n3c4c(c(-c5cccc6ccccc56)c(Cl)cc24)OC[C@H]3Cn2cccn2)C[C@H]1C (atropisomer, axis not shown) [Example 292, (3R,10S)-3-((1H-pyrazol-1-yl)methyl)-7-((2S,5R)-4-acryloyl-2,5-dimethylpiperazin-1-yl)-9-chloro-10-(naphthalen-1-yl)-2,3-dihydro-5H-[1,4]oxazino[2,3,4-ij]quinazolin-5-one]
